Measured values as given in US9969964B2, “Disease-on-a-chip” (Purdue Research Foundation, priority 2013, dated 2018).

Test system: T4-2 tumor nodules
Assay: Apoptosis (TUNEL assay combined with DAPI scoring of pyknotic and karyorrhectic nuclei) of T4-2 tumor nodules treated with chemotherapeutic drugs
Assay type: cell-based
Conditions: for sensitivity of tumor nodules to drug (apoptosis): T4-2 nodules cocultured with S1 non-neoplastic breast epithelium on flat surfaces compared to monocultures of tumor nodules, FIG. 21 and 22; for sensitivity of cancer cells to drug (apoptosis): T4-2 nodules cocultured with S1 within semicircular hemichannels versus on flat surfaces
Source text: The findings described above prompted a test of the sensitivity of T4-2 tumor nodules to the chemotherapeutic drugs bleomycin (BLM, a radiomimetic agent used in the laboratory to study cellular responses to treatments that compromise genome integrity) and doxorubicin (DOX, an anthracycline used for the treatment of breast cancer). In this study, apoptosis was utilized as an endpoint to evaluate drug responses and was quantified using the TUNEL assay combined with visual scoring for pyknotic and karyorrhectic nuclei via DAPI staining (i.e. nuclear condensation and fragmentation, respectively). Three types of T4-2 nodules were compared: monocultures, cocultures with S1 luminal epithelium on the flat surface of the chip, and cocultures with S1 epithelium in the semicircular hemichannels.
This difference is intriguing and could not be explained by the proliferation status within nodules on flat surfaces and in hemichannels (27.5%±1.8% and 24.2%±2.5% Ki67-positive cells, respectively; P=0.292, unpaired t-test, n>10 nodule sections corresponding to >700 nuclei). […] It is possible that the microenvironment or the geometry in the hemichannels promotes modifications in the nuclear organization of tumor cells, which may influence cellular responses to cytotoxic drugs. This view is supported by the measured differences in nuclear circularity reported above, and is in agreement with early recommendations that nuclear morphometric descriptors, including roundness, should be investigated as possible predictors of response to therapy. The disease-on-a-chip system used for coculture with cancer cells provides a system with potential for improved understanding of cancer development and drug assessment in tissue context.

## bleomycin [BLM]
  sensitivity of tumor nodules to drug (apoptosis): increased sensitivity
  sensitivity of cancer cells to drug (apoptosis): significantly less
Drug concentration chosen to ease detection of increased sensitivity to genotoxic stress, should minimally affect cell survival
  toxicity to T4-2 nodules: low toxicity

## COc1cccc2c1C(=O)c1c(O)c3c(c(O)c1C2=O)C[C@@](O)(C(=O)CO)C[C@@H]3O[C@H]1C[C@H](N)[C@H](O)[C@H](C)O1 [DOX, doxorubicin]
  sensitivity of tumor nodules to drug (apoptosis): increased sensitivity
  sensitivity of cancer cells to drug (apoptosis): significantly less
